From the RepoRT retention time repository (doi:10.1016/j.jhazmat.2019.121712)

Experiment: Thermo Scientific Acclaim RSLC 120 C18, 100 × 2.1 mm, 2.2 µm, 30 °C; A: 90% water + 10% methanol + 0.01% formic acid + 5 mM ammonium formate; B: methanol + 0.01% formic acid + 5 mM ammonium formate; gradient (min/%B) 0.1/1 3/39 14/99.9 16/99.9
Details: stereoisomer not certain

Row | Structure (SMILES) | LC retention time [min]
1 | COCC(NC(C)=O)C(=O)NCc1ccccc1 (centres undefined) | 5.09
2 | CNC(=O)Oc1cccc2ccccc12 | 7.46
3 | Cc1ccccc1C(OCCN(C)C)c1ccccc1 (centres undefined) | 7.44
4 | CC(C)C1(NC(=O)C2CC3c4cccc5[nH]cc(c45)CC3N(C)C2)OC2(O)C3CCCN3C(=O)C(Cc3ccccc3)N2C1=O (centres undefined) | 8.17
5 | COC1C=COC2(C)Oc3c(C)c(O)c4c(O)c(c5c(nc6cc(C)ccn65)c4c3C2=O)NC(=O)C(C)=CC=CC(C)C(O)C(C)C(O)C(C)C(OC(C)=O)C1C (centres undefined) | 10.1
6 | CCCC(C)(COC(N)=O)COC(=O)NC(C)C (centres undefined) | 7.99
7 | Cc1ncc(CSSCc2cnc(C)c(O)c2CO)c(CO)c1O | 5.54
8 | COP(=S)(OC)Oc1ccc(Sc2ccc(OP(=S)(OC)OC)cc2)cc1 | 12.4
9 | N=C1NC(=O)C(c2ccccc2)O1 (centres undefined) | 4.34
10 | CC(C)c1ccc(NC(=O)N(C)C)cc1 | 8.32
11 | CCOP(=S)(OCC)ON=C(C#N)c1ccccc1 | 11.2
12 | CCNC(C)C(=O)c1ccc(C)cc1 (centres undefined) | 4.74
13 | Cc1nccc2c1[nH]c1ccccc12 | 4.91
14 | CC(C)NCC(O)COc1ccc(COCCOC(C)C)cc1 (centres undefined) | 5.91
15 | CCOP(=S)(OCC)SCSC(C)(C)C | 12.2
16 | Cc1nnc(-c2ccccc2)c(=O)[nH]1 | 5.29
17 | CCOC(=O)C1C(OC(=O)c2ccccc2)CC2CCC1N2C (centres undefined) | 5.46
18 | COC(=O)c1sccc1S(=O)(=O)NC(=O)Nc1nc(C)nc(OC)n1 | 6.24
19 | CN(C)C(CCOc1cccc2ccccc12)c1ccccc1 (centres undefined) | 8.34
20 | CCCCCn1cc(C(=O)c2ccc(C)c3ccccc23)c2ccccc21 | 12.9
21 | C=CC(N)CCC(=O)O (centres undefined) | 1.38
22 | CCNC(C)C(O)c1ccc(O)c(O)c1 (centres undefined) | 1.99
23 | NC1CC1c1ccccc1 (centres undefined) | 4.27
24 | N#CCCCCn1cc(C(=O)c2cccc3ccccc23)c2ccccc21 | 9.69
25 | CCS(=O)Cc1ccccc1OC(=O)NC (centres undefined) | 4.7

Row | Structure (SMILES) | LC retention time [min]
26 | CCCCNC(=O)n1c(NC(=O)OC)nc2ccccc21 | 5.46
27 | CC1C(=O)OC2CCN3CC=C(COC(=O)C(C)(O)C1(C)O)C23 (centres undefined) | 2.92
28 | COP(N)(=O)SC (centres undefined) | 2.76
29 | CCCSP(=S)(OCC)Oc1ccc(SC)cc1 (centres undefined) | 12.8
30 | NCC(O)c1cccc(O)c1 (centres undefined) | 1.81
31 | CCOP(=S)(OCC)SCS(=O)(=O)C(C)(C)C | 9.01
32 | CCCCCCCCc1ccc(OCCOCCO)cc1 | 14.1
33 | CCN(CC)C(=O)NC1C=C2c3cccc4[nH]cc(c34)CC2N(C)C1 (centres undefined) | 5.92
34 | CCC(=O)OC(Cc1ccccc1)(c1ccccc1)C(C)CN(C)C (centres undefined) | 7.73
35 | CCC(C)CC(C)N (centres undefined) | 4.68
36 | CC1(C)C(C(=O)c2cn(CCN3CCOCC3)c3ccccc23)C1(C)C | 10.7
37 | CN(C)CCC=C1c2ccccc2C(C)(C)c2ccccc21 | 8.79
38 | CCCSc1cc(OC)c(CCN)cc1OC | 6.98
39 | CCCCCCCCCCCCOCCOCCOCCOCCO | 13.5
40 | c1ccc2c(c1)Sc1ccccc1N2CC1CN2CCC1CC2 (centres undefined) | 8.29
41 | CSC1=NC(C)(c2ccccc2)C(=O)N1Nc1ccccc1 (centres undefined) | 9.22
42 | CC12CCC3C4CCC(=O)C=C4CCC3C1CCC2O (centres undefined) | 9.37
43 | O=C(OC1CC2CCC(C1)[N+]21CCCC1)C(O)(c1ccccc1)c1ccccc1 (centres undefined) | 5.72
44 | COC(=O)C1C(OC(=O)c2ccccc2)CC2CCC1N2C (centres undefined) | 4.84
45 | CN(C)CCC=C1c2ccccc2CSc2ccccc21 | 7.61
46 | CN(C)c1nc(=O)n(C2CCCCC2)c(=O)n1C | 7.09
47 | CC=C(C)C(=O)OC1CC(OC(C)=O)C2(C(=O)OC)COC3C2C12COC(O)(C(=O)OC)C2C(C)(C12OC1(C)C1CC2OC2OC=CC21O)C3O (centres undefined) | 7.56
48 | CNCCC(c1ccccc1)c1ccccn1 (centres undefined) | 5.79
49 | COc1ccc(Cc2cnc(N)nc2N)cc1OC | 3.88
50 | CCSCCSP(=S)(OC)OC | 10.2

Row | Structure (SMILES) | LC retention time [min]
51 | CC(Cc1ccc2c(c1)OCO2)N(C)C (centres undefined) | 4.08
52 | O=C1CN=C(c2ccccc2)c2cc([N+](=O)[O-])ccc2N1 | 7.79
53 | CCCCCn1cc(C(=O)c2ccc(OC)cc2)c2ccccc21 | 11.8
54 | CNC(=O)CSP(=S)(OC)OC | 5.23
55 | Cc1ccc(N=CN(C)C=Nc2ccc(C)cc2C)c(C)c1 | 13.3
56 | CCOP(=S)(OCC)Oc1ccc([N+](=O)[O-])cc1 | 10.7
57 | CCOP(=O)(NC(C)C)Oc1ccc(SC)c(C)c1 (centres undefined) | 10.4
58 | CN(C)P(=O)(OP(=O)(N(C)C)N(C)C)N(C)C | 5.36
59 | Cc1ccccc1-n1c(C)nc2ccccc2c1=O | 7.83
60 | CN(C)CCC=C1c2ccccc2CCc2ccccc21 | 8.23
61 | CC1COCc2cc3c(cc21)C(C)(C)C(C)C3(C)C (centres undefined) | 13.9
62 | c1ccc(CC2=NCCN2)cc1 | 3.28
63 | CCNc1nc(NC(C)C)[nH]c(=O)n1 | 5.03
64 | CN1C2CC(OC(=O)C(CO)c3ccccc3)CC1C1OC12 (centres undefined) | 3.83
65 | COc1cc(CCN)cc(OC)c1OC | 3.88
66 | c1ccc(Nc2ccccc2)cc1 | 10.1
67 | CCCCCn1cc(C(=O)c2ccc(CC)c3ccccc23)c2ccccc21 | 13.2
68 | CCC(CC)Nc1c([N+](=O)[O-])cc(C)c(C)c1[N+](=O)[O-] | 12.8
69 | O=C1NC(=O)C2CC=CCC12 (centres undefined) | 4.37
70 | COP(=O)(NC(C)=O)SC (centres undefined) | 3.11
71 | CCCOP(=O)(OCCC)Oc1ccc(SC)cc1 | 10.8
72 | CC(O)Cn1cnc2c1c(=O)n(C)c(=O)n2C (centres undefined) | 4.34
73 | Cc1nc(N(C)C)nc(OC(=O)N(C)C)c1C | 7.77
74 | COc1ccc2c(c1)[nH]c1c(C)nccc12 | 5.34

Further lines, results first:

Row | LC retention time [min] | Structure (SMILES)
75 | 7.26 | CC(=O)c1ccc2c(c1)N(CC(C)N(C)C)c1ccccc1S2 (centres undefined)
76 | 4.16 | Cc1nnc(SCC2=C(C(=O)O)N3C(=O)C(NC(=O)Cn4cnnn4)C3SC2)s1 (centres undefined)
77 | 3.38 | CC(C)(ON=C(C(=O)NC1C(=O)N2C(C(=O)[O-])=C(C[n+]3ccccc3)CSC12)c1csc(N)n1)C(=O)O (centres undefined)
78 | 6.83 | CCOC(=O)C(CCc1ccccc1)NC(C)C(=O)N1CCCC1C(=O)O (centres undefined)
79 | 4.28 | CC(=O)N=c1sc(S(N)(=O)=O)nn1C
80 | 7.14 | CCCc1nn(C)c2c(=O)[nH]c(-c3cc(C(=O)CN4CCCCC4)ccc3OCC)nc12
81 | 5.34 | CC(CN(C)C)CN1c2ccccc2S(=O)(=O)c2ccccc21 (centres undefined)
82 | 3.79 | OCC(O)CN1CCN(c2ccccc2)CC1 (centres undefined)
83 | 10.7 | CCC1=C(C)CN(C(=O)NCCc2ccc(S(=O)(=O)NC(=O)NC3CCC(C)CC3)cc2)C1=O (centres undefined)
84 | 5.72 | Cc1c(NC(C)C)c(=O)n(-c2ccccc2)n1C
85 | 5.99 | CN1CCC(=C2c3ccccc3CCc3cccnc32)CC1
86 | 3.18 | CCN1CCCC1CNC(=O)c1cc(S(N)(=O)=O)ccc1O (centres undefined)
87 | 13.2 | CCCC(NC(C)C(=O)N1C(C(=O)O)CC2CCCCC21)C(=O)OCC (centres undefined)
88 | 4.29 | CC(C)(C)NCC(O)COc1cccc2c1CC(O)C(O)C2 (centres undefined)
89 | 9.81 | CCCc1nn(C)c2c(=O)[nH]c(-c3cc(C(C)=O)ccc3OCC)nc12
90 | 3.68 | c1ccc(C2CN3CCSC3=N2)cc1 (centres undefined)
91 | 3.95 | Cc1ccnc(NS(=O)(=O)c2ccc(N)cc2)n1
92 | 8.49 | CNCC(C)CN1c2ccccc2CCc2ccccc21 (centres undefined)
93 | 5.47 | O=C(Nc1ccc(C(=O)O)c(O)c1)c1ccccc1
94 | 4.33 | CCNCC(=O)Nc1c(C)cccc1C

Row | LC retention time [min] | Structure (SMILES)
95 | 8.15 | CN1CCN(CCCN2c3ccccc3Sc3ccc(S(=O)(=O)N(C)C)cc32)CC1
96 | 5.11 | COc1ccccc1OCC(O)CO (centres undefined)
97 | 10.6 | CCc1cccc2c3c([nH]c12)C(CC)(CC(=O)O)OCC3 (centres undefined)
98 | 3.97 | CN=C(NC)NCc1ccccc1
99 | 5.67 | CC(=O)Nc1ccc(-c2ccc(C=NN3CC(=O)NC3=O)o2)cc1
100 | 4.08 | CCCC1CC(C(=O)NC(C(C)O)C2OC(SC)C(O)C(O)C2O)N(C)C1 (centres undefined)
101 | 3.88 | CCN1CCCC1CNC(=O)c1cc(S(=O)(=O)CC)c(N)cc1OC (centres undefined)
102 | 10.4 | CC(C)C1CCC(C(=O)NC(Cc2ccccc2)C(=O)O)CC1 (centres undefined)
103 | 7.19 | c1ccc(CN(CCN2CCCC2)c2ccccc2)cc1
104 | 6.83 | CC12CCC3c4ccc(O)cc4CCC3C1CC(O)C2O (centres undefined)
105 | 12 | CCC(C)C(=O)OC1CC(C)C=C2C=CC(C)C(CCC3CC(O)CC(=O)O3)C21 (centres undefined)
106 | 7.86 | Cc1cc(C)cc(OCC2CNC(=O)O2)c1 (centres undefined)
107 | 8.36 | CCC(C)C(=O)OC1CC(O)C=C2C=CC(C)C(CCC(O)CC(O)CC(=O)O)C21 (centres undefined)
108 | 9.69 | CC(C)(C)c1ccc(C(O)CCCN2CCC(C(O)(c3ccccc3)c3ccccc3)CC2)cc1 (centres undefined)
109 | 4.93 | CC(=O)c1cc2cccc(OCC(O)CNC(C)C)c2o1 (centres undefined)
110 | 7.89 | Cc1ccc(C(=O)c2ccc(CC(=O)O)n2C)cc1
111 | 8.33 | CNCC(C)CN1c2ccccc2Sc2ccc(OC)cc21 (centres undefined)
112 | 10.9 | CN(C(=O)CN(CCO)CC(=O)N(C)C(C)(C)Cc1ccccc1)C(C)(C)Cc1ccccc1
113 | 8.05 | CCCc1nc(C)c2c(=O)[nH]c(-c3cc(S(=O)(=O)N4CCN(CCO)CC4)ccc3OCC)nn12
114 | 2.64 | CCCNC1CCc2nc(N)sc2C1 (centres undefined)
